The record followed here is paper PMC9320513, “Peptide-Mediated Targeted Delivery of Aloe-Emodin as Anticancer Drug” (Molecules, 2022).

Where a SMILES comes first, the peptide text is derived from it. The star is where a group is joined. X1 = O=C(CCCC(=O)*)OCc1cc(O)c2c(c1)C(=O)c1cccc(O)c1C2=O

In series [1] the test system is NK-92 cells. The series can be described thus: Growth inhibition of NK92 cells, WST-8 assay. The following applies: 20, 10, 5 and 1 µM, 24, 48 and 72 h, WST-8, two independent experiments. The procedure: NK-92 cell lines in exponential phase of growth were collected, extensively washed with warm RPMI-1640, and seeded (in triplicate) in 96-well microtiter Costar plates (Costar, Rochester, NY, USA) at a density of 5 × 10^3 cells/mL. The cells were cultured in BM containing recombinant IL-2(100 IU/mL). In the growth inhibition assays, NK92 cells were maintained for 24, 48, and 72 h at 37 °C alone or in the presence of 20, 10, 5, and 1 µM of Aloe-emodin, glutaryl derivatives of AE and AE-CPP-LTV (6). For all above-described experiments, cell survival was determined by WST-8 assay (Orangu™ Cell Counting SolutionWST-8 cell proliferation kit (Aurogene, Rome, Italy), after 24, 48, and 72 h treatment at 37 °C in 5% CO2. Cells were treated with different compounds/absorbance values of control (cells incubated with vehicle alone) cells * 100%. Statistical analysis was performed by the Student’s t-test (2-tailed) to assess differences between means of data analyzed. The p-values are indicated in the figure legends. The statistical analysis of differences was performed with GraphPad Prism 8.
(In general: Tetrazolium assays rely on reduction of a dye to a coloured formazan, in cell work by metabolically active cells.)

The test system of series [2] is NK-92 cells. Kind of series: Proliferation of NK-92 cells, Ki-67 flow cytometry. It counts as cell-based, Human. The note with it: 48 h, all concentrations except 50 μM. The procedure:
(§1) Apoptosis was quantified using FITC-conjugated annexin V (AV) according to the manufacturer’s protocol (Marine Biological Laboratory, Woods Hole, MA, USA). Annexin V-FITC staining in NK-92 cell lines was determined after 48 h in the absence or presence of different amounts of Aloe-emodin (9 mM stock solution in DMSO) ranging from 6.25 to 50 μM. Proliferation was evaluated by measuring Ki-67 nuclear antigen expression using FITC-labeled anti-human Ki-67 mAb according to the manufacturer’s protocol (BD Biosciences, San Jose, CA, USA). Acquisition was performed on a FACSCalibur flow cytometer (BD Biosciences) and at least 10,000 events per sample were run. Data were analyzed using the Cell Quest Pro software (BD Biosciences) and expressed as mean ± standard deviation from 2 independent experiments.

Series [3] concerns NK-92 cells. Kind of series: Apoptosis in NK-92 cells, Annexin V-FITC flow cytometry. The following applies: 48 h. It counts as cell-based, Human. The method, then:
as §1
A general note: In flow cytometry, cells or beads pass a laser one at a time.

For series [4], the system named is A549 cells. Kind of series: MTT cell viability assay in A549 cells. The series is classed as cell-based, Human. The method, then:
(§2) The compounds (2), (3), and (6), were evaluated for cell viability effects using the MTT assay on SKBR3 and A549 cells at 24, 48, and 72 h at different concentrations. Cell lines were seeded into 96-well microtiter plates (Corning, Inc., Corning, NY, USA) at a density of 1 × 10^4 cells/well. After 24 h, cells were exposed to increased concentrations of compounds (previously prepared in PBS to obtain a stock solution of 1 mM) in cell culture medium. After an incubation time of 24, 48, and 72 h, media were removed and MTT (Sigma, Deisenhofen, Germany) diluted in culture media was added to each well at 0.5 mg/mL. Plates were incubated for 2 h at 37 °C in 5% CO2 incubator; unreacted dye was removed, and cells were solubilized in DMSO (Merck, Darmstadt, Germany). Absorbance was read at 570 nm by an ELISA plate reader (Biorad). Data were expressed as cell metabolic activity, which was calculated as the absorbance value of cells treated with different compounds/absorbance value of control (cells incubated with vehicle alone) cells * 100%. All experiments were performed in triplicate, and all data were expressed as the mean ± standard deviation. One-way ANOVA with Dunnett’s multiple comparisons test was performed with respect to the controls (**** p < 0.0001).

Series [5] concerns SKBR3 cells. Kind of series: MTT cell viability assay in SKBR3 cells. It counts as cell-based, Human. The method, then:
as §2

The test system of series [6] is NK92 cells killing K562 target cells. Kind of series: NK92 cell-mediated cytotoxicity against K562 cells, LDH release. The series is classed as cell-based, Human. The following applies: NK92 treated 48 h with 5 to 20 μM, E:T ratio 10:1, 4 h with K562, LDH release, 4 independent experiments. The method, then:
To determine NK-92’s cell cytotoxicity, CytoTox 96 non-radioactive cytotoxicity assay (Promega, Madison, WI) was used, based on the colorimetric detection of the released enzyme LDH. NK-92 cells were harvested, washed, counted, and diluted at the concentration of 1 × 10^6 cells/mL in BM with 10% FCS and 100 μ/mL of IL-2. […] Target cells were harvested, washed, resuspended to 1 × 10^5 cells/mL in BM, added, and incubated with effector cells for 4 h at 37 °C employing incresingincreasing effector/target cell ratio ranging from 0.625:1 to 10:1 in triplicate. A total of 50 μL of supernatants were assayed for LDH activity according to the manufacturer’s instruction. Controls for spontaneous and maximum LDH release in effector and target cells were also assayed. The calculation of cytotoxicity percentage was as follows: (Experimental—Effector Spontaneous—Target spontaneous)/(Target Maximum—Target Spontaneous) × 100. Data are expressed as mean ± standard deviation from 4 independent experiments. […] The statistical analysis was performed with GraphPad Prism 8.
On the technique in general: LDH in the medium is a marker of cell lysis.

Regarding `CC(C)C[C@H](NC(=O)CNC(=O)[C@@H]1CCCN1C(=O)CNC(=O)[C@@H](NC(=O)[C@H](CCCCN)NC(=O)[C@H](CCCNC(=N)N)NC(=O)[C@H](CCCCN)NC(=O)[C@H](CCCCN)NC(=O)[C@H](CCCCN)NC(=O)[C@@H]1CCCN1C(=O)CCCC(=O)OCc1cc(O)c2c(c1)C(=O)c1cccc(O)c1C2=O)C(C)C)C(=O)N[C@H](C(=O)N[C@H](C(=O)N[C@@H](CO)C(=O)N1CCC[C@H]1C(=O)N[C@@H](Cc1c[nH]c2ccccc12)C(=O)N[C@@H](Cc1ccc(O)cc1)C(=O)O)C(C)C)[C@@H](C)O` [compound 6] (X1-PKKKRKVGPGLTVSPWY-OH), the “growth inhibition of NK-92 cells” value in series [1] is reported as “did not induce growth inhibition”.

In the case of `O=C1c2cccc(O)c2C(=O)c2c(O)cc(CO)cc21` [compound 2, 8-dihydroxy-3-hydroxymethyl-anthraquinone], the “proliferation of NK-92 cells” value in series [2] is on record as “neither AE (2) induced apoptosis or affected proliferation”. In addition, in series [3] (50 μM), the “effect on NK-92 cells at the higher dose” value is given as “cytotoxic effect”. In series [3] (6.25 to 50 μM, all concentrations except 50 μM, Annexin V-FITC), the “apoptosis of NK-92 cells” value is listed as “neither AE (2) induced apoptosis or affected proliferation”.

For the compound `O=C(O)CCCC(=O)OCc1cc(O)c2c(c1)C(=O)c1cccc(O)c1C2=O` [compound 3, 5-((4,5-dihydroxy-9,10-dioxo-9,10-dihydroanthracen-2-yl)methoxy)-5-oxopentanoic acid], the “growth inhibition of NK-92 cells” value in series [1] is given as “did not induce growth inhibition”. Moreover, in series [4], the “comparative cell viability reduction (3 versus AE (2); 6 versus 3 at 20 μM)” value is listed as “more effective” and the “concentration at which effect on cell viability is already seen” value is “effective already at 5 µM”. Moreover, in series [5], the “comparative cell viability reduction (3 versus AE (2); 6 versus 3 at 20 μM)” value was “more effective” and the “concentration at which effect on cell viability is already seen” value is reported as “effective already at 5 µM”. Moreover, the “NK92-mediated cytotoxicity against K562 compared with untreated NK92 cells” value in series [6] is given as “less NK92-mediated cytotoxicity than the control sample”.
